The values that follow come from patent US20160287568A1, “COMPOSITION OF A NON-NUCLEOSIDE REVERSE TRANSCRIPTASE INHIBITOR” (MERCK SHARP & DOHME CORP., priority 2013, published 2016).

As usually defined, the Tmax is the time from dosing to the highest level. What is called Cmax is the maximum level reached in the sampled fluid or tissue.

The nature of series [1]: Storage of neat amorphous spray dried drug in open container, crystallization. Type of series: physicochemical. The note with it: neat amorphous drug generated by spray drying. The source says:
It is well understood that crystallization tendency varies dramatically across active pharmaceutical ingredients (Journal of Pharmaceutical Sciences, Vol. 99, No. 9, September 2010) and the rate of crystallization is a function of the thermodynamic driving force and the mobility of the system (Angell, C. A., Formation of Glasses from Liquids and Biopolymers. Science, 1995. 267(5206): p. 1924-1935. Mullin, J. W., Crystallization. 4th ed. 2001, Oxford: Reed Educational and Professional Publishing Ltd. Hoffman, J. D., Thermodynamic Driving Force in Nucleation and Growth Processes. Journal of Chemical Physics, 1958. 29(5): p. 1192-1193. Adam, G. and Gibbs, J. H., On Temperature Dependence of Cooperative Relaxation Properties in Glass-Forming Liquids. Journal of Chemical Physics, 1965. 43(1): p. 139-146. Ediger, M. D., Supercooled liquids and glasses. Journal of Physical Chemistry, 1996. 100(31): p. 13200-13212.). […] Neat amorphous drug generated by spray drying crystallizes within 2 weeks when stored in an open container at 5° C./ambient relative humidity (RH), 30° C./65% RH, 40° C./75% RH, and 60° C./ambient RH.

Series [2] is described as follows: Pharmacokinetic profile in fasted beagle dogs. The class given is in vivo. The note with it: dog, blood, po, 1 mg/kg; for Cmax / AUC(0-t): 3 fasted beagle dogs; for AUC(0-t): read-out: AUC0-24. As to the method:
The API is Compound A, or a pharmaceutically acceptable salt thereof. Bioavailability is determined in vivo by dosing trial formulations and/or other formulations of the active pharmaceutical ingredient (API) to Beagle dogs at a dose of 1 mg/kg of the API and then measuring the amount of API in the serum or blood as a function of time. The spray dried particles from Spray Dry Process I were made into granules as follows. The particles were blended in a suitable blender (V or Bohle) with microcrystalline cellulose (diluent/compression aid), lactose (diluent/compression aid), croscarmellose sodium (a disintegrant), colloidal silicon dioxide (a glidant), and magnesium stearate (a lubricant). The blended powders were then roller compacted into granules, subjected to extragranular lubrication, and filled into capsules.

[3] abbreviates: capsule of spray dried dispersion: 10% Compound A, 40% HPMCAS-LG.
[4] abbreviates: comparison capsule: 30% crystalline Compound A without polymer, 5% sodium lauryl sulfate.

Where two headings read alike, the source gives them in different places.

As to `Cn1c(Cn2ccc(C(F)(F)F)c(Oc3cc(Cl)cc(C#N)c3)c2=O)n[nH]c1=O` [Compound A, 3-chloro-5-({1-[(4-methyl-5-oxo-4,5-dihydro-1H-1,2,4-triazol-3-yl)methyl]-2-oxo-4-(trifluoromethyl)-1,2-dihydropyridin-3-yl}oxy)benzonitrile], the time to crystallization in series [1] (5° C./ambient RH), in series [1] (30° C./65% RH), in series [1] (40° C./75% RH) and in series [1] (60° C./ambient RH) was not above 2 weeks each time. The time to peak (Tmax) in series [2] turned out to be 4 h. In addition, the Cmax is 7.23 ± 0.99 µM in series [2] (setting [3]) and 3.46 ± 1.59 µM in series [2] (setting [4]). Also, the AUC(0-t) in series [2] (setting [3]) is 137 ± 25.3 µM·h; in series [2] (setting [4]), 52.4 ± 15.9 µM·h.
